Assay results: US6972319B1, “Pituitary adenylate cyclase activating peptide (PACAP)receptor 3 (R3) agonists and their pharmacological methods of use” (priority 1999, dated 2005)
No end group written: not given here.

Legend:
[1] = molecular target: T1, PACAP-R2 (Homo sapiens, UniProt P32241); assay: Cyclic AMP SPA on CHO cells transfected with PACAP-R2; type: cell-based; conditions: cAMP SPA, concentration at which 50% of maximum PACAP27 activity is achieved, NA = no detectable activities, read-out: R2 EC50
T1 construct: expressed in transfected cells; host or cells: CHO cells
T1 sequence (P32241 31-457): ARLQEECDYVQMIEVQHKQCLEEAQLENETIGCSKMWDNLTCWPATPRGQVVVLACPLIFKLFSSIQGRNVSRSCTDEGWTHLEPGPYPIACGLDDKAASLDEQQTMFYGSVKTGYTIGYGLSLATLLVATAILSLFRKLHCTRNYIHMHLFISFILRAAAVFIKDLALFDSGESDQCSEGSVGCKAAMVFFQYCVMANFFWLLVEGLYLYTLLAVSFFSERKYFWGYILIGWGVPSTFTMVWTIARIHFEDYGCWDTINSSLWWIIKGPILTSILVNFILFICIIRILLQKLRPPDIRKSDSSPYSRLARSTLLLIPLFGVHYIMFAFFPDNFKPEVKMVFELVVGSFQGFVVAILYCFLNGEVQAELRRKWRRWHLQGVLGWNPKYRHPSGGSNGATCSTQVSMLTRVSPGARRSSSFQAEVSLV
Outline: (§1)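 Receptor-transfected CHO cells are stimulated with peptide for 15 min at 37 C in the presence of phosphodiesterase inhibitor IBMX (100 uM), bacitracin and soybean trypsin inhibitor; cAMP is then read by scintillation proximity.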

[2] = molecular target: T2, PACAP-R3 (Homo sapiens, UniProt P41587); assay: Cyclic AMP SPA on CHO cells expressing PACAP R3; type: cell-based; parameters: expressed in transfected cells; host or cells: CHO cells (Geneticin selection); conditions: for EC50: cAMP SPA, CHO cells transfected with PACAP-R3, concentration at which 50% of maximum PACAP27 activity is achieved, NA = no detectable activities, read-out: R3 EC50; for R3 Selectivity: ratio of EC50 at R2 versus EC50 at R3
T2 sequence (P41587 24-438): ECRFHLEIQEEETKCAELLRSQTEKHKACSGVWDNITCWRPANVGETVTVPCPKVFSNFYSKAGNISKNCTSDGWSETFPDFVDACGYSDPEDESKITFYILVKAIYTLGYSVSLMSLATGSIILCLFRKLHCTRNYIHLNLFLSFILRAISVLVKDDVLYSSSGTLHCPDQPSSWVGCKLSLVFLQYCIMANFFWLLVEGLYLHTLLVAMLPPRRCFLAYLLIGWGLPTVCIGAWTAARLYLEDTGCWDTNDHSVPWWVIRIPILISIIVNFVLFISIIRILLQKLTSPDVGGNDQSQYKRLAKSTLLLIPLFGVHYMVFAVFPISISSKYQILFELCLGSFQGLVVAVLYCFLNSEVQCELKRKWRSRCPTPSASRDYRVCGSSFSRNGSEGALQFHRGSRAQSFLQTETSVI
Outline: as §1

Row | Sequence | EC50 [1] [nM] | EC50 [2] [nM] | R3 Selectivity [2]
1 | HSDAVFTDNYTRLRKQMAAKKYLNSIQNRI [rR3P184] | 10 | 0.37 | 30
2 | HSDAVFTDNYTRLRKQMAAKKYLNSIRNKR [Peptide R3P128] | 60 | 0.3 | 200
3 | HSDAVFTDNYTRLRKQMAAKKYLNSIRNRI [rR3P189] | 1.3 | 0.04 | 30
4 | HSDAVFTDNYTRLRKQMAAKKYLNSITNKR [Peptide R3P130] | 40 | 1 | 40
5 | HSDAVFTDNYTRLRKQMAAKKYLNSIVNKR [Peptide R3P131] | 20 | 0.3 | 70
6 | HSDAVFTDNYTRLRKQMAAKKYLNSIWNKR [Peptide R3P132] | 10 | 0.2 | 50
7 | HSDAVFTDNYTRLRKQMAAKKYLQSIKNKRY [Peptide R3P69] | 90 | 0.5 | 190
8 | HSDAVFTDNYTRLRKQMAEKKYLNSIKNKR [Peptide R3P99] | 40 | 1 | 40
9 | HSDAVFTDNYTRLRKQMAFKKYLNSIKNKR [Peptide R3P100] | 10 | 0.3 | 30
10 | HSDAVFTDNYTRLRKQMAGKKYLNSIKNKR [Peptide R3P101] | 400 | 1 | 400
11 | HSDAVFTDNYTRLRKQMAGKKYLNSIKNRI [rR3P175] | 400 | 2.2 | 180
12 | HSDAVFTDNYTRLRKQMAGKKYLNSIPNRI [rR3P180] | > 100 | 6.7 | >20
13 | HSDAVFTDNYTRLRKQMAHKKYLNSIKNKR [Peptide R3P102] | 300 | 60 | 5
14 | HSDAVFTDNYTRLRKQMAIKKYLNSIKNKR [Peptide R3P103] | 0.4 | 0.05 | 8
15 | HSDAVFTDNYTRLRKQMAKKKYLNSIKNRI [rR3P176] | 300 | 2 | 150
16 | HSDAVFTDNYTRLRKQMAKKKYLNSIPNRI [rR3P181] | 280 | 5.1 | 50
17 | HSDAVFTDNYTRLRKQMAKKKYLNSIQNRI [rR3P186] | 70 | 1.6 | 44
18 | HSDAVFTDNYTRLRKQMAKKKYLNSIRNRI [rR3P191] | > 200 | 2.7 | >80
19 | HSDAVFTDNYTRLRKQMARKKYLNSIKNKR [Peptide R3P110] | 100 | 0.5 | 200
20 | HSDAVFTDNYTRLRKQMARKKYLNSIKNRI [rR3P177] | 110 | 1.6 | 70
21 | HSDAVFTDNYTRLRKQMARKKYLNSIPNRI [rR3P182] | 280 | 3.2 | 90
22 | HSDAVFTDNYTRLRKQMARKKYLNSIQNRI [rR3P187] | > 130 | 1.6 | >80
23 | HSDAVFTDNYTRLRKQMARKKYLNSIRNRI [rR3P192] | 40 | 0.6 | 60
24 | HSDAVFTDNYTRLRKQMASKKYLNSIKNRI [rR3P178] | 80 | 0.75 | 110
25 | HSDAVFTDNYTRLRKQMASKKYLNSIPNRI [rR3P183] | > 150 | 5.4 | >30
26 | HSDAVFTDNYTRLRKQMASKKYLNSIQNRI [rR3P188] | 150 | 2.2 | 70
27 | HSDAVFTDNYTRLRKQMASKKYLNSIRNRI [rR3P193] | 200 | 1.9 | 110
28 | HSDAVFTDNYTRLRKQMAVKKYLNDILN [Peptide R3P48] | 1 | 0.13 | 8
